# In patent publication US20160002204A1 (Board of Regents, The University of Texas System, priority 2014, published 2016):
# What was measured:
# [1] = target: T1, GLS1 (purified recombinant human GAC) (Homo sapiens, UniProt O94925); test: GLS1 enzymatic activity assay (dual-coupled, Amplex UltraRed/resorufin); assay type: biochemical
# T1 sequence (O94925 55-598 isoform O94925-3 limits assumed): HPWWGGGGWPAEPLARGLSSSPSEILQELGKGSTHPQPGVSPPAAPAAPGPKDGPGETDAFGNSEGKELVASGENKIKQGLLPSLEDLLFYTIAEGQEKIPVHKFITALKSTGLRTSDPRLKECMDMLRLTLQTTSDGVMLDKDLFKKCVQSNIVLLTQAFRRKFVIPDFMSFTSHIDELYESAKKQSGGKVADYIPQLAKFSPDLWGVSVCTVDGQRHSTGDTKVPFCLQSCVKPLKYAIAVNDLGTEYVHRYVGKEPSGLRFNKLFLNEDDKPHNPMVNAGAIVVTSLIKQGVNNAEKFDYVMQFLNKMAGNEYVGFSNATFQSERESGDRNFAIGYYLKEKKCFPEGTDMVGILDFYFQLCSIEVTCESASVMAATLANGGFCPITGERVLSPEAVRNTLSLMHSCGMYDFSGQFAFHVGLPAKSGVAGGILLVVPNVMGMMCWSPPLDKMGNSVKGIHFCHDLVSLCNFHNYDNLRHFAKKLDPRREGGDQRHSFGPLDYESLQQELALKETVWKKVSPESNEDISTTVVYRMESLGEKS
# Method in brief: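 Recombinant human GAC (2 nM) preincubated with 50 mM potassium phosphate, then inhibitor (10 min each, RT); 1 mM glutamine, pH 7.4 Hepes buffer, 1% DMSO. Glutamate coupled via glutamate oxidase/HRP to resorufin (Ex 530/Em 590), kinetic or 20-min endpoint; IC50 by four-parameter logistic fit.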
# [2] = test system: A549 cells; test: A549 proliferation (viability) assay, Cell Titer Fluor, 72 hours; assay type: cell-based; conditions: Homo sapiens
# Method in brief: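 A549 cells seeded at 1000 cells/well, left 24 h, then exposed to compound for 72 h at 37 °C, 5% CO2, final DMSO 0.5% (v/v). Viability read by Cell Titer Fluor fluorescence; EC50 from four-parameter logistic fit.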
Compound,IC50 [1] [nM],EC50 [2] [nM]
"O=C(Nc1ccn(CCCCn2cc(C(=O)NCc3cccc(OC(F)(F)F)c3)nn2)c(=O)c1)OCc1cccc(OC(F)(F)F)c1 [Example 64, [3-(trifluoromethoxy)phenyl]methyl N-(2-oxo-1-{4-[4-({[3-(trifluoro-methoxy)phenyl]methyl}carbamoyl)-1H-1,2,3-triazol-1-yl]butyl}-1,2-dihydropyridin-4-yl)carbamate]",< 100,100 to 500
"COc1cccc(CNC(=O)c2cn(CCCCn3ccc(NC(=O)Cc4cccc(OC(F)(F)F)c4)cc3=O)nn2)c1 [Example 65, N-[(3-methoxyphenyl)methyl]-1-[4-(2-oxo-4-{2-[3-(trifluoromethoxy)phenyl]acetamido}-1,2-dihydropyridin-1-yl)butyl]-1H-1,2,3-triazole-4-carboxamide]",< 100,500 to 5000
"O=C(Cc1cccc(OC(F)(F)F)c1)Nc1ccn(CCCCn2cc(C(=O)NCc3cccc(F)c3)nn2)c(=O)c1 [Example 66, N-[(3-fluorophenyl)methyl]-1-[4-(2-oxo-4-{2-[3-(trifluoromethoxy)phenyl]acetamido}-1,2-dihydropyridin-1-yl)butyl]-1H-1,2,3-triazole-4-carboxamide]",< 100,500 to 5000
"COc1ccc(CNC(=O)c2cn(CCCCn3ccc(NC(=O)Cc4cccc(OC(F)(F)F)c4)cc3=O)nn2)cc1 [Example 67, N-[(4-methoxyphenyl)methyl]-1-[4-(2-oxo-4-{2-[3-(trifluoromethoxy)phenyl]acetamido}-1,2-dihydropyridin-1-yl)butyl]-1H-1,2,3-triazole-4-carboxamide]",< 100,500 to 5000
"CS(=O)(=O)c1ccc(CNC(=O)c2cn(CCCCn3ccc(NC(=O)Cc4cccc(OC(F)(F)F)c4)cc3=O)nn2)cc1 [Example 68, N-[(4-methanesulfonylphenyl)methyl]-1-[4-(2-oxo-4-{2-[3-(trifluoromethoxy)phenyl]acetamido}-1,2-dihydropyridin-1-yl)butyl]-1H-1,2,3-triazole-4-carboxamide]",< 100,> 5000
"O=C(Cc1cccc(OC(F)(F)F)c1)Nc1ccn(CCCCn2cc(C(=O)NCc3cccnc3)nn2)c(=O)c1 [Example 69, 1-[4-(2-oxo-4-{2-[3-(trifluoromethoxy)phenyl]acetamido}-1,2-dihydropyridin-1-yl)butyl]-N-(pyridin-3-ylmethyl)-1H-1,2,3-triazole-4-carboxamide]",< 100,500 to 5000
"Cc1ccc(CNC(=O)c2cn(CCCCn3ccc(NC(=O)Cc4cccc(OC(F)(F)F)c4)cc3=O)nn2)cn1 [Example 70, N-[(6-methylpyridin-3-yl)methyl]-1-[4-(2-oxo-4-{2-[3-(trifluoromethoxy)phenyl]acetamido}-1,2-dihydropyridin-1-yl)butyl]-1H-1,2,3-triazole-4-carboxamide]",< 100,500 to 5000
"O=C(Cc1ccccc1)Nc1ccn(CCCCCn2ccc(NC(=O)Cc3ccccc3)nc2=O)c(=O)n1 [Example 71, N-(2-oxo-1-{5-[2-oxo-4-(2-phenyl-acetamido)-1,2-dihydropyrimidin-1-yl]pentyl}-1,2-dihydropyrimidin-4-yl)-2-phenylacetamide]",500 to 5000,> 5000
"Nc1nnc(CCCCn2ccc(NC(=O)Cc3ccccc3)nc2=O)s1 [Example 72, N-{1-[4-(5-amino-1,3,4-thiadiazol-2-yl)butyl]-2-oxo-1,2-dihydropyrimidin-4-yl}-2-phenylacetamide]",500 to 5000,> 5000
"O=C(Cc1ccccc1)Nc1ccn(CCCCc2nnc(NC(=O)Cc3ccccc3)s2)c(=O)n1 [Example 73, N-(2-oxo-1-{4-[5-(2-phenylacetamido)-1,3,4-thiadiazol-2-yl]butyl}-1,2-dihydropyrimidin-4-yl)-2-phenylacetamide]",< 100,500 to 5000
"O=C(Cc1ccccc1)Nc1ccn(CCCCCc2nnc(NC(=O)Cc3ccccc3)s2)c(=O)n1 [Example 74, N-(2-oxo-1-{5-[5-(2-phenylacetamido)-1,3,4-thiadiazol-2-yl]pentyl}-1,2-dihydropyrimidin-4-yl)-2-phenylacetamide]",500 to 5000,> 5000
